Laboratory results published in ChEMBL document CHEMBL1131296 (J Med Chem, 1998).

How the values were obtained:
[1] = target: T1, Alpha-1A adrenergic receptor (Rattus norvegicus, UniProt P43140); assay: Antagonism of the norepinephrine induced contraction of rat isolated prostatic vas deferens.; type: functional; conditions: read-out: pA2 (converted)
T1 sequence (P43140 whole entry): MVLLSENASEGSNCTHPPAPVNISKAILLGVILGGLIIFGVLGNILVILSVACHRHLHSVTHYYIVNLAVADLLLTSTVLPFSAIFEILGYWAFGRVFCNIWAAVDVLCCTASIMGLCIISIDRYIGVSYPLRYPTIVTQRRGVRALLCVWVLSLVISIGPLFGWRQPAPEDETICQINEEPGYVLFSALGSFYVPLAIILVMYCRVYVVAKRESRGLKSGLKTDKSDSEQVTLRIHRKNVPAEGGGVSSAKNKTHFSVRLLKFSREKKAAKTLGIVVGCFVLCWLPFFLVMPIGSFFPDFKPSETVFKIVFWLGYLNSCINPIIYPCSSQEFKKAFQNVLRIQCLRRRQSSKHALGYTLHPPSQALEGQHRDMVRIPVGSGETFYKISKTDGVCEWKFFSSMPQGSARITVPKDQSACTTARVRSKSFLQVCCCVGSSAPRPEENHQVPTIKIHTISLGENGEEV

[2] = target: T2, Alpha-1D adrenergic receptor (Rattus norvegicus, UniProt P23944); assay: Antagonism of norepinephrine induced contraction of rat isolated thoracic aorta.; type: functional, tissue-based; conditions: read-out: pA2 (converted)
T2 sequence (P23944 whole entry): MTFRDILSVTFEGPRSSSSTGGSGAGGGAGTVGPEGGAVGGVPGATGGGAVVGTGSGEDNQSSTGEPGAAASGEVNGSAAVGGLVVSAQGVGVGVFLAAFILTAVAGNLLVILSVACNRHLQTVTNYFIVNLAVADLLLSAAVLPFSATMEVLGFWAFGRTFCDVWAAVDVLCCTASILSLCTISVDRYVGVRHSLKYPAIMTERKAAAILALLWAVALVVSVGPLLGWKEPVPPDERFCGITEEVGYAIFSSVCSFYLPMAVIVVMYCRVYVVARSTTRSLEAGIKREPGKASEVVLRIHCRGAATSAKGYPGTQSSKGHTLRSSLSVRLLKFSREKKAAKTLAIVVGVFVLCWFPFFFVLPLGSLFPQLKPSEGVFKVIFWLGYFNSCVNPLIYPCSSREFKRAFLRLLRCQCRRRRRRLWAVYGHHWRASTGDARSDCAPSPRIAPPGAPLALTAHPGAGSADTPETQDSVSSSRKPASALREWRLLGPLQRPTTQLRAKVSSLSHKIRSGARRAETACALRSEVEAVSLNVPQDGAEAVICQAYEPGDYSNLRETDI

[3] = target: T3, Alpha-1B adrenergic receptor (Rattus norvegicus, UniProt P15823); assay: Antagonism of phenylephrine stimulated contraction of the rat isolated spleen.; type: functional, tissue-based; conditions: read-out: pA2 (converted)
T3 sequence (P15823 whole entry): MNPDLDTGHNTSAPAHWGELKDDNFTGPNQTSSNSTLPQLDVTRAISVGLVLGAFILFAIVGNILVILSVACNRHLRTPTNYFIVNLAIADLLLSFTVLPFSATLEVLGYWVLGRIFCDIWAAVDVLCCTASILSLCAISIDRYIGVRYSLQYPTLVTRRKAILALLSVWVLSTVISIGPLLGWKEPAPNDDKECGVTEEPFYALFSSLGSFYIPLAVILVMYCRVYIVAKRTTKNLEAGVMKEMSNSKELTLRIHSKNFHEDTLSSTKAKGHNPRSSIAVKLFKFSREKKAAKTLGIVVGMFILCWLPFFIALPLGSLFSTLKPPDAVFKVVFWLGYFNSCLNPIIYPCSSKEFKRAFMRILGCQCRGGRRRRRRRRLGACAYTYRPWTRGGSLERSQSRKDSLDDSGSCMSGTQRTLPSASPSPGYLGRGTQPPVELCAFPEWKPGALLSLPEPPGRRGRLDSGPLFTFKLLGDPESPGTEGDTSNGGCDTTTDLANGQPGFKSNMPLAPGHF

[4] = target: T4, Adrenergic receptor alpha-2 (Rattus norvegicus, UniProt P22086+P19328+P22909); assay: Antagonism of the clonidine-induced depression of twitch responses of rat isolated prostatic vas deferens.
T4 sequence (P22086 whole entry): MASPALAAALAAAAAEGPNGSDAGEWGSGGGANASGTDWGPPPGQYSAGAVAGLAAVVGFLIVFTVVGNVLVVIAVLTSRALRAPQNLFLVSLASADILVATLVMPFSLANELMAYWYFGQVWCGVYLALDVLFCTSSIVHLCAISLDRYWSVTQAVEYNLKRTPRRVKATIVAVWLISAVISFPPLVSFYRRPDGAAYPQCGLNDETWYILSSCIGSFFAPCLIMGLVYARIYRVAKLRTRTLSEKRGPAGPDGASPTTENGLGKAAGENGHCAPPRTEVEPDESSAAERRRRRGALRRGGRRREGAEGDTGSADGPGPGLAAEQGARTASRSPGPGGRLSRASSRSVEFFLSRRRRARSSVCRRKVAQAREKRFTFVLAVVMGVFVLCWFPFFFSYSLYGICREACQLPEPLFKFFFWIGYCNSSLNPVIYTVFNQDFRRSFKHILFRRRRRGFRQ
T4 sequence (P19328 whole entry): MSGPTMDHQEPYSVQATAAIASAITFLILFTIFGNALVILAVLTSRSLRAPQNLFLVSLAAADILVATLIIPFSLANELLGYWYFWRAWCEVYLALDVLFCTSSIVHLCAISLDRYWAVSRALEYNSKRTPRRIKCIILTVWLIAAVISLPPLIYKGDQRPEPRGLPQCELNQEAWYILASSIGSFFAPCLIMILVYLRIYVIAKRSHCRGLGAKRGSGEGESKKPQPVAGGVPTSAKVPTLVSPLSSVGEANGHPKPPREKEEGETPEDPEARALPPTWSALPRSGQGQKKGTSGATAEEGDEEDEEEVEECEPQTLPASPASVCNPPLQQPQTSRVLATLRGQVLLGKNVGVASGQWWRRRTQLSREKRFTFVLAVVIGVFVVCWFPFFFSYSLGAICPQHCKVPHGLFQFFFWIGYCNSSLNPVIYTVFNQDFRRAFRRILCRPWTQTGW
T4 sequence (P22909 whole entry): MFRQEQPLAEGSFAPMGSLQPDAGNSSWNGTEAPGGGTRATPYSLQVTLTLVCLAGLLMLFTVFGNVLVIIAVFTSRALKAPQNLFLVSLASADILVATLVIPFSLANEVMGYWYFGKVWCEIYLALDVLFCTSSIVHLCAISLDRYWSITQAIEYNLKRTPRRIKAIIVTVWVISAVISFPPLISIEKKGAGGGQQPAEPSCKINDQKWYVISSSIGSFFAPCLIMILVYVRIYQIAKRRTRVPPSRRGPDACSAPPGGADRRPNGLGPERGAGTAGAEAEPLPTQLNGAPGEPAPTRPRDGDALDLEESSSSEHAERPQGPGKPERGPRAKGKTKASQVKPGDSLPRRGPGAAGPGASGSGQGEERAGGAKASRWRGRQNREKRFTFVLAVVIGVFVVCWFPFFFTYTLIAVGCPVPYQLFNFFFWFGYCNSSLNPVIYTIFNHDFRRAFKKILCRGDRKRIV

[5] = target: T5, Alpha-1B adrenergic receptor (Homo sapiens, UniProt P35368); assay: Binding affinity at human cloned Alpha-1B adrenergic receptor in chinese hamster ovary cells by [3H]prazosin displacement.; type: cell-based, CHO
T5 sequence (P35368 whole entry): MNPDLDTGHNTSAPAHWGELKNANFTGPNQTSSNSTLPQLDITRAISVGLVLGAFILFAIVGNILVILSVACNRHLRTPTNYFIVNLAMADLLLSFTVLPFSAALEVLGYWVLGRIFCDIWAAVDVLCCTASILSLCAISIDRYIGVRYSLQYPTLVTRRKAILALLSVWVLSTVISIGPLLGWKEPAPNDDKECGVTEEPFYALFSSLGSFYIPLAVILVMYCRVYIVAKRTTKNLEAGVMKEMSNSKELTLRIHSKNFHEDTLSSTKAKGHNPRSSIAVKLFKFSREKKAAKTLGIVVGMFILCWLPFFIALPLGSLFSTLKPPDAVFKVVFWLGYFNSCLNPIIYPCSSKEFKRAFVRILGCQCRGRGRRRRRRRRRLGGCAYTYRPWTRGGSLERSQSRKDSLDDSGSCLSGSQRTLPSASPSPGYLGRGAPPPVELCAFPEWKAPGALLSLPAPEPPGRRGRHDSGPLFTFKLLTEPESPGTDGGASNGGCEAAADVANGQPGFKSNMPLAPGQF

| Compound | Kb [1] [nM] | Kb [2] [nM] | Kb [3] [nM] | pA2 [4] | Ki [5] [nM] |
| --- | --- | --- | --- | --- | --- |
| COc1cc2nc(N(C)CCCCCCN(C)C(=O)c3ccccc3)nc(N)c2cc1OC | 38 | 6.92 | 0.447 | 6.52 | – |
| COc1cc2nc(N(C)CCCCCCN(C)C(=O)c3ccc(CCl)o3)nc(N)c2cc1OC | 6.76 | 0.407 | 1.07 | < 5 | – |
| COc1cc2nc(N(C)CCCCCCN(C)C(=O)c3ccc(CN(C)C)cc3)nc(N)c2cc1OC | 72.4 | 13.8 | 2.95 | 5.12 | – |
| COc1cc2nc(N(C)CCCCCCN(C)C(=O)c3ccc(CN4CCSC4)cc3)nc(N)c2cc1OC | 58.9 | 6.76 | 9.77 | < 5 | – |
| COc1cc2nc(N(C)CCSSCCN(C)C(=O)c3ccc(CCl)o3)nc(N)c2cc1OC | 16.6 | 9.33 | 42.7 | < 5 | – |
| COc1cc2nc(N(C)CCCCCCN(C)C(=O)c3cccc(CCl)c3)nc(N)c2cc1OC | 79.4 | 51.3 | 66.1 | < 5 | – |
| COc1cc2nc(N(C)CCSSCCN(C)C(=O)c3ccc(CN(C)C)o3)nc(N)c2cc1OC | 200 | 6.03 | 53.7 | < 5 | – |
| COc1cc2nc(N(C)CCCCCCN(C)C(=O)c3cccc(CN4CCSC4)c3)nc(N)c2cc1OC | 15.1 | 3.09 | 9.33 | 5.94 | – |
| COc1cc2nc(N(C)CCCCCCN(C)C(=O)c3ccc(CN(C)C)o3)nc(N)c2cc1OC | 38.9 | 5.89 | 2.4 | < 5 | – |
| COc1cc2nc(N(C)CCCCCCN(C)C(=O)c3cccc(CN)c3)nc(N)c2cc1OC | 47.9 | 2.04 | 2.45 | 5.44 | – |
| COc1cc2nc(N(C)CCCCCCN(C)C(=O)c3ccc(CCl)cc3)nc(N)c2cc1OC | 77.6 | 19.5 | 0.708 | 5.54 | – |
| COc1ccccc1N1CCN(CCN2C(=O)CC3(CCCC3)CC2=O)CC1 [BMY-7378] | – | – | – | < 5 | 64.6 |

More lines, now with the values ahead:

| Kb [1] [nM] | Kb [2] [nM] | Kb [3] [nM] | pA2 [4] | Ki [5] [nM] | Compound |
| --- | --- | --- | --- | --- | --- |
| 191 | 3.47 | 0.617 | 5.6 | – | CNCCCCCCN(C)Cc1ccc(C(=O)N(C)CCCCCCN(C)c2nc(N)c3cc(OC)c(OC)cc3n2)cc1 |
| 8.91 | 14.5 | 19.5 | < 5 | – | CNCCCCCCN(C)Cc1cccc(C(=O)N(C)CCCCCCN(C)c2nc(N)c3cc(OC)c(OC)cc3n2)c1 |
| 417 | 2.82 | 1.86 | 5.31 | – | COc1cc2nc(N(C)CCCCCCN(C)C(=O)c3ccccc3CCl)nc(N)c2cc1OC |
| 10.7 | 3.16 | 0.676 | 5.47 | – | COc1cc2nc(N(C)CCCCCCN(C)C(=O)c3ccccc3CNCCCCCCN)nc(N)c2cc1OC |
| 91.2 | 5.5 | 13.2 | < 5 | – | COc1cc2nc(N(C)CCCCCCN(C)C(=O)c3ccccc3CN(C)C)nc(N)c2cc1OC |
